According to article PMC10279719 (Nature Communications, 2023):

Key:
14-3-3γ = biological target: T1, 14-3-3γ (Homo sapiens, UniProt P61981); assay: SPR, PEAK peptides binding to immobilised 14-3-3γ; conditions: peptide analyte over amine-coupled 14-3-3γ (CM5); Biacore S200, HBS-TP pH 7.4, 20 °C; steady-state 1:1 fit; mean ± S.E.M.; read-out: SPR KD, 14-3-3γ (gamma)
T1 construct: 14-3-3γ (UniProt P61981-1; residues 1–247); 8-His tag with TEV protease cleavage site (N); made in house; host or cells: E. coli C41 (DE3)
T1 sequence (P61981 1-247): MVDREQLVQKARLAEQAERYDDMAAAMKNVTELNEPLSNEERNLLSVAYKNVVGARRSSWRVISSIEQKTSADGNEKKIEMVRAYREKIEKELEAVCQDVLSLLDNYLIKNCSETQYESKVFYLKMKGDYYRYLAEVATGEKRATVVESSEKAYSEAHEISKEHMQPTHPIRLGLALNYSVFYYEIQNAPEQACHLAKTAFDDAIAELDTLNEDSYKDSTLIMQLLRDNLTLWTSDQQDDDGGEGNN
Experimental: (§1) Purified […]3 was diluted to 5 μg ml^-1 in 10 mM sodium acetate pH 4.0 and amine coupled at 25 °C to a Series S CM5 sensor chip, in HBS-N running buffer (20 mM HEPES pH 7.4, 150 mM NaCl) to a final immobilization level of 1100-1400 response units (RU), followed by surface deactivation using 1 M ethanolamine. A blank activation/deactivation was used for the reference surface. […] Samples were injected in a multi-cycle run (flow rate 30 μl min^-1, contact time of 60 s, dissociation 120 s) without regeneration. Sensorgrams were double referenced, and steady-state binding data fitted using a 1:1 binding model using Biacore S200 Evaluation Software (Cytiva, v. 1.1). […] Representative sensorgrams and fitted dissociation constant (KD) values, depicted as mean ± S.E.M.

14-3-3ε = biological target: T2, 14-3-3ε (Homo sapiens, UniProt P62258); assay: SPR, PEAK tandem peptides binding to immobilised 14-3-3ε; conditions: peptide analyte over amine-coupled 14-3-3ε (CM5); Biacore S200, HBS-TP pH 7.4, 20 °C; steady-state 1:1 fit; mean ± S.E.M.; read-out: SPR KD, 14-3-3ε (epsilon)
T2 construct: 14-3-3ε (UniProt P62258-1; residues 1–255); 8-His tag with TEV protease cleavage site (N); made in house; host or cells: E. coli C41 (DE3)
T2 sequence (P62258 1-255): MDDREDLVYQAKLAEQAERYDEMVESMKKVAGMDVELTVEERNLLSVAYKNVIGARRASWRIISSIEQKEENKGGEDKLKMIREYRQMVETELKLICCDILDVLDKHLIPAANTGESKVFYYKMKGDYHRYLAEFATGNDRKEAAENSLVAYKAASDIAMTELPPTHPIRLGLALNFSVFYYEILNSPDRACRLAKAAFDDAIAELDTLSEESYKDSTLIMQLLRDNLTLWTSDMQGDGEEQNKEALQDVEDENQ
Experimental: Purified […]3 was diluted to 5 μg ml^-1 in 10 mM sodium acetate pH 4.0 and amine coupled at 25 °C to a Series S CM5 sensor chip, in HBS-N running buffer (20 mM HEPES pH 7.4, 150 mM NaCl) to a final immobilization level of 1100-1400 response units (RU), followed by surface deactivation using 1 M ethanolamine. A blank activation/deactivation was used for the reference surface. […] PEAK PRM peptides: […] Samples were injected in a multi-cycle run (flow rate 30 μl min^-1, contact time of 60 s, dissociation 120 s) without regeneration. Sensorgrams were double referenced, and steady-state binding data fitted using a 1:1 binding model using Biacore S200 Evaluation Software (Cytiva, v. 1.1). […] Representative sensorgrams and fitted dissociation constant (KD) values, depicted as mean ± S.E.M.

14-3-3η = biological target: T3, 14-3-3η (Homo sapiens, UniProt Q04917); assay: SPR, PEAK tandem peptides binding to immobilised 14-3-3η; conditions: peptide analyte over amine-coupled 14-3-3η (CM5); Biacore S200, HBS-TP pH 7.4, 20 °C; steady-state 1:1 fit; mean ± S.E.M.; read-out: SPR KD, 14-3-3η (eta)
T3 construct: 14-3-3η (UniProt Q04917-1; residues 1–246); 8-His tag with TEV protease cleavage site (N); made in house; host or cells: E. coli C41 (DE3)
T3 sequence (Q04917 1-246): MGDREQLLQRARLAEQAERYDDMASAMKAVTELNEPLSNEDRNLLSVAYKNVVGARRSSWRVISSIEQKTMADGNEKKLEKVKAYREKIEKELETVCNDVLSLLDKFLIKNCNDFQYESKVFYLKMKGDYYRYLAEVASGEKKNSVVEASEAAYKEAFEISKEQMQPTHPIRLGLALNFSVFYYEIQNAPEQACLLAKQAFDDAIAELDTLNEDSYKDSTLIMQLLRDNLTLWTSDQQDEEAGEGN
Experimental: as §1

14-3-3σ (Homo sapiens) = biological target: T4, 14-3-3σ (Homo sapiens); assay: SPR, PEAK tandem peptides binding to immobilised 14-3-3σ; conditions: peptide analyte over amine-coupled 14-3-3σ (CM5); Biacore S200, HBS-TP pH 7.4, 20 °C; steady-state 1:1 fit; mean ± S.E.M.; read-out: SPR KD, 14-3-3σ (sigma)
T4 construct: 14-3-3ς (UniProt P63104-1; residues 1–245); 8-His tag with TEV protease cleavage site (N); made in house; host or cells: E. coli C41 (DE3)
T4 sequence (P63104 whole entry, the tested form may be a part): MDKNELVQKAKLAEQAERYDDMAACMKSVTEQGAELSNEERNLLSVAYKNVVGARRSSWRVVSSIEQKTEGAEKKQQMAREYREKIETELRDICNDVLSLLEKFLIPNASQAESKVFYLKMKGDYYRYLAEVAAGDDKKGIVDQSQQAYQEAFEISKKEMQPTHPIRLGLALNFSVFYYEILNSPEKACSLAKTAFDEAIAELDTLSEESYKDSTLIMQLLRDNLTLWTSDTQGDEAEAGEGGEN
Experimental: as §1

Grb2^FL = conditions: isothermal titration calorimetry, shown previously; read-out: ITC KD, Grb2^FL; cited from earlier work
CrkII^NSH3 = biological target: T5, CrkII^NSH3 (Homo sapiens, UniProt P46108); assay: SPR, CrkII NSH3 binding to immobilised PEAK proteins; conditions: read-out: CrkII NSH3 SPR KD; interactor as analyte over biotinylated PEAK protein captured with biotin CAPture kit; Biacore 8K+, HBS-TP, 20 °C; steady-state fit; mean ± SD (N = 2); read-out: CrkII-SH2 SPR KD
T5 construct: CrkII^NSH3; UniProt P46108-1, residues 134–191; 8-His tag with TEV protease cleavage site (N); made in house; host or cells: E. coli C41 (DE3)
T5 sequence (P46108 134-191): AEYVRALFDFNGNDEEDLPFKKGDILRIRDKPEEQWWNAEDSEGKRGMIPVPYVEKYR
Experimental: (§2) SPR binding studies of PEAK PRM peptides to CrkII^NSH3 were performed using a Biacore S200 Instrument (Cytiva). Purified CrkII^NSH3 was diluted to 5 µg ml^−1 in 10 mM sodium acetate pH 4.0 and amine coupled at 25 °C to a Series S CM5 sensor chip, in HBS-N running buffer (20 mM HEPES pH 7.4, 150 mM NaCl) to a final immobilization level of 1100–1400 response units (RU), followed by surface deactivation using 1 M ethanolamine. A blank activation/deactivation was used for the reference surface. Peptide binding studies were performed at 20 °C in HBS-TP running buffer (20 mM HEPES pH 7.4, 150 mM NaCl, 1 mM TCEP, 0.005% (v/v) Tween-P20). […] Peptide stocks were further diluted to in running buffer to 10 or 20 µM and prepared as a 11-point concentration series (2-fold serial dilution, […] for PEAK PRM peptides, or 20 µM–20 nM for PEAK tandem motif peptides). Samples were injected in a multi-cycle run (flow rate 30 µl min^−1, contact time of 60 s, dissociation 120 s) without regeneration. Sensorgrams were double referenced, and steady-state binding data fitted using a 1:1 binding model using Biacore S200 Evaluation Software (Cytiva, v. 1.1).
(§3) SPR binding studies of PEAK proteins to full length CrkII/Grb2 and sub-domains were performed using a Biacore 8K+ Instrument (Cytiva) and analyzed using Biacore Insight Evaluation Software (v. 3.0.12.15655). […] Binding studies and steady-state data analysis were performed as described for CrkII^NSH3 with the inclusion of an additional surface regeneration step (60 s injection of 1 M NaCl) between cycles.

CrkII^FL dimer = biological target: T6, CrkII^FL dimer (Homo sapiens, UniProt P46108); assay: SPR, CrkII FL dimer binding to immobilised PEAK proteins; conditions: interactor as analyte over biotinylated PEAK protein (biotin CAPture); Biacore 8K+, HBS-TP with 500 mM NaCl, 20 °C; steady-state fit; mean ± SD (N = 2)
T6 construct: full length CrkII (CrkII^FL; UniProt P46108-1, residues 1–330); 8-His tag with TEV protease cleavage site (N); made in house; host or cells: E. coli C41 (DE3)
T6 sequence (P46108 whole entry, the tested form may be a part): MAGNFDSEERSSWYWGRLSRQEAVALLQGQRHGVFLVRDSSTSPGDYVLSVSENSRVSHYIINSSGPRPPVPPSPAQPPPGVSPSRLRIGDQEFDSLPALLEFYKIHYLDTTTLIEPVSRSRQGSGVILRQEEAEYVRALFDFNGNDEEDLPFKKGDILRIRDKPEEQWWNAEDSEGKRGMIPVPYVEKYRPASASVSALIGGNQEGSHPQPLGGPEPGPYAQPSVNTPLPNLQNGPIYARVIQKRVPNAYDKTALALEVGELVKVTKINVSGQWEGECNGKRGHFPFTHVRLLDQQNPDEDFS
Experimental: as §2
(§4) SPR binding studies of PEAK proteins to full length CrkII/Grb2 and sub-domains were performed using a Biacore 8K+ Instrument (Cytiva) and analyzed using Biacore Insight Evaluation Software (v. 3.0.12.15655). […]

14-3-3ɣ = assay: SPR, 14-3-3ɣ binding to immobilised PEAK proteins; design: species or system human; conditions: 14-3-3ɣ analyte 0.46–1000 nM, multi-cycle, over immobilised biotinylated PEAK protein; Biacore 8K+, 20 °C; KD only an estimate (bivalent analyte model); N = 3
Experimental: PEAK proteins and adapters proteins (full length or individual domains) were biotinylated using EZ-Link™ NHS-PEG4-Biotin (Thermo Fisher) at a 1:1 molar ratio (100 µM) for 1 h at room temperature, then excess biotin was removed by buffer exchange using a Zeba™ Spin Desalting Column (Thermo Fisher) into HBS-T buffer (20 mM HEPES pH 7.4, 150 mM NaCl, 1 mM TCEP).
SPR binding studies of PEAK proteins to full length CrkII/Grb2 and sub-domains were performed using a Biacore 8K+ Instrument (Cytiva) and analyzed using Biacore Insight Evaluation Software (v. 3.0.12.15655). […] Biotinylated PEAK proteins (with or without Src phosphorylation; 500 nM in HBS-TP) were immobilized using a biotin CAPture kit (Cytiva) in HBS-TP running buffer at 20 °C. Binding studies and steady-state data analysis were performed as described for CrkII^NSH3 with the inclusion of an additional surface regeneration step (60 s injection of 1 M NaCl) between cycles. For Grb2^FL, Grb2^SH2, CrkII^SH2, CrkII^FL monomer and CrkII^FL dimer, to reduce nonspecific interactions the HBS-TP running buffer was supplemented with additional NaCl to a final concentration of 500 mM.
Binding studies for 14-3-3ɣ were undertaken in the same way in multi cycle mode (8 point, 3-fold serial dilution series, 0.46–1000 nM, 60 s contact time, 300 s dissociation).

CrkII^SH2 = biological target: T7, CrkII^SH2 (Homo sapiens, UniProt P46108); assay: SPR, CrkII SH2 binding to immobilised PEAK proteins; conditions: interactor as analyte over biotinylated PEAK protein (biotin CAPture); Biacore 8K+, HBS-TP with 500 mM NaCl, 20 °C; steady-state fit; mean ± S.E.M. (N = 3)
T7 construct: CrkII^SH2; UniProt P46108-1, residues 6–120; 8-His tag with TEV protease cleavage site (N); made in house; host or cells: E. coli C41 (DE3)
T7 sequence (P46108 6-120): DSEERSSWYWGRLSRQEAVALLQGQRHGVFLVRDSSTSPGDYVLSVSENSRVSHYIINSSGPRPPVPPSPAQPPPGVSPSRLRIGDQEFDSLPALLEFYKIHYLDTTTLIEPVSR
Experimental: as §2, §3

CrkII^FL monomer = biological target: T8, CrkII^FL monomer (Homo sapiens, UniProt P46108); assay: SPR, CrkII FL monomer binding to immobilised PEAK proteins; conditions: interactor as analyte over biotinylated PEAK protein (biotin CAPture); Biacore 8K+, HBS-TP with 500 mM NaCl, 20 °C; steady-state fit; mean ± SD (N = 2)
T8 construct: full length CrkII (CrkII^FL; UniProt P46108-1, residues 1–330); 8-His tag with TEV protease cleavage site (N); made in house; host or cells: E. coli C41 (DE3)
T8 sequence (P46108 whole entry, the tested form may be a part): as the sequence (P46108 whole entry, the tested form may be a part) above
Experimental: as §2, §4

Kd (14-3-3γ) | Kd (14-3-3ε) | Kd (14-3-3η) | Kd (14-3-3σ (Homo sapiens)) | Compound | Kd (CrkII^NSH3) | Kd (CrkII^FL dimer) | further results
> 100 µM | > 100 µM | > 100 µM | > 100 µM | CC[C@H](C)[C@H](NC(=O)[C@H](CCCCN)NC(=O)[C@H](CCCCN)NC(=O)[C@H](CCC(N)=O)NC(=O)[C@@H]1CCCN1C(=O)[C@H](CC(C)C)NC(=O)[C@@H]1CCCN1C(=O)[C@@H]1CCCN1C(=O)[C@@H]1CCCN1C(C)=O)C(=O)N[C@H](C(=O)N[C@@H](CO)C(=O)N[C@@H](CCCNC(=N)N)C(=O)N[C@@H](C)C(=O)N[C@@H](C)C(=O)N[C@@H](CO)C(=O)N[C@@H](CO)C(=O)N1CCC[C@H]1C(=O)N[C@@H](CC(=O)O)C(=O)NCC(=O)N[C@@H](Cc1ccccc1)C(N)=O)C(C)C (single isomer, unassigned) [PEAK2^tandem] |  |  | 
> 100 µM | > 100 µM | > 100 µM | > 100 µM | CC[C@H](C)[C@H](NC(=O)[C@H](CCSC)NC(=O)[C@H](CCCCN)NC(=O)[C@H](CCCCN)NC(=O)[C@@H]1CCCN1C(=O)[C@H](CC(C)C)NC(=O)[C@@H]1CCCN1C(=O)[C@@H]1CCCN1C(=O)[C@@H]1CCCN1C(C)=O)C(=O)N[C@H](C(=O)N[C@@H](CCCNC(=N)N)C(=O)N[C@@H](C)C(=O)N[C@@H](CC(N)=O)C(=O)N[C@H](C(=O)N[C@@H](CCC(=O)O)C(=O)N1CCC[C@H]1C(=O)N[C@H](C(=O)N[C@@H](CO)C(=O)N[C@@H](CCCCN)C(=O)N[C@@H](CC(=O)O)C(N)=O)[C@@H](C)CC)[C@@H](C)O)[C@@H](C)CC (single isomer, unassigned) [PEAK1^tandem] |  |  | 

The remaining lines, values behind:

Compound | Kd (14-3-3γ) | Kd (14-3-3ε) | Kd (14-3-3η) | Kd (14-3-3σ (Homo sapiens)) | Kd (CrkII^NSH3) | Kd (CrkII^FL dimer) | further results
CC(=O)N[C@H](C(=O)N[C@@H](Cc1ccc(OP(=O)(O)O)cc1)C(=O)N[C@@H](CO)C(=O)N[C@@H](CC(N)=O)C(=O)N[C@@H](CC(C)C)C(=O)NCC(=O)N[C@@H](CCC(N)=O)C(N)=O)[C@@H](C)O [SH2-pY peptide] |  |  |  |  |  |  | Kd (Grb2^FL): 2.6 µM
PEAK3-FL (+ Src phosphorylation): insect cell PEAK3 (1–473) phosphorylated with recombinant Src kinase |  |  |  |  | 6.84 µM | 2.18 µM | Kd (14-3-3ɣ): < 1 µM
PEAK3-FL E.coli (+ Src phosphorylation): E. coli PEAK3 (1–473) phosphorylated with recombinant Src kinase |  |  |  |  | 13.1 µM | 2.11 µM | SPR KD, CrkII-SH2 (CrkII^SH2): No binding; Kd (CrkII^FL monomer): 2.6 µM; SPR KD, 14-3-3ɣ (14-3-3ɣ): No binding
